Patent US20110065782A1, “METHODS OF IDENTIFYING COMPOUNDS THAT INHIBIT THE ACTIVATION OF A BIOMOLECULE AND METHODS OF TREATMENT USING THE COMPOUNDS” (priority 2009, published 2011)

Experiments:
Edema Factor (EF) = Edema Factor (EF) (Bacillus anthracis, UniProt P40136); experiment: biochemical; type: biochemical
preformed EF-CaM complex = preformed EF-CaM complex (Bacillus anthracis, UniProt P40136); type: biochemical
calmodulin (CaM) = molecular target: T1, calmodulin (CaM) (Homo sapiens, UniProt P0DP23); experiment: CaM binding of peptide P233-254 probed by steady-state tryptophan anisotropy fluorescence; conditions: 10 μM TUAdiCl; for fluorescence anisotropy (r) of P233-254 peptide: peptide 2 μM, calcium present
T1 construct: made in house

[1] = molecular target: T2, adenylate cyclase toxin (CyaA) (Bordetella pertussis, UniProt P0DKX7); experiment: Colorimetric adenylate cyclase enzymatic assay on CyaA; type: biochemical; conditions: concentration not given
T2 construct: made in house
T2 sequence (P0DKX7 whole entry, looked up): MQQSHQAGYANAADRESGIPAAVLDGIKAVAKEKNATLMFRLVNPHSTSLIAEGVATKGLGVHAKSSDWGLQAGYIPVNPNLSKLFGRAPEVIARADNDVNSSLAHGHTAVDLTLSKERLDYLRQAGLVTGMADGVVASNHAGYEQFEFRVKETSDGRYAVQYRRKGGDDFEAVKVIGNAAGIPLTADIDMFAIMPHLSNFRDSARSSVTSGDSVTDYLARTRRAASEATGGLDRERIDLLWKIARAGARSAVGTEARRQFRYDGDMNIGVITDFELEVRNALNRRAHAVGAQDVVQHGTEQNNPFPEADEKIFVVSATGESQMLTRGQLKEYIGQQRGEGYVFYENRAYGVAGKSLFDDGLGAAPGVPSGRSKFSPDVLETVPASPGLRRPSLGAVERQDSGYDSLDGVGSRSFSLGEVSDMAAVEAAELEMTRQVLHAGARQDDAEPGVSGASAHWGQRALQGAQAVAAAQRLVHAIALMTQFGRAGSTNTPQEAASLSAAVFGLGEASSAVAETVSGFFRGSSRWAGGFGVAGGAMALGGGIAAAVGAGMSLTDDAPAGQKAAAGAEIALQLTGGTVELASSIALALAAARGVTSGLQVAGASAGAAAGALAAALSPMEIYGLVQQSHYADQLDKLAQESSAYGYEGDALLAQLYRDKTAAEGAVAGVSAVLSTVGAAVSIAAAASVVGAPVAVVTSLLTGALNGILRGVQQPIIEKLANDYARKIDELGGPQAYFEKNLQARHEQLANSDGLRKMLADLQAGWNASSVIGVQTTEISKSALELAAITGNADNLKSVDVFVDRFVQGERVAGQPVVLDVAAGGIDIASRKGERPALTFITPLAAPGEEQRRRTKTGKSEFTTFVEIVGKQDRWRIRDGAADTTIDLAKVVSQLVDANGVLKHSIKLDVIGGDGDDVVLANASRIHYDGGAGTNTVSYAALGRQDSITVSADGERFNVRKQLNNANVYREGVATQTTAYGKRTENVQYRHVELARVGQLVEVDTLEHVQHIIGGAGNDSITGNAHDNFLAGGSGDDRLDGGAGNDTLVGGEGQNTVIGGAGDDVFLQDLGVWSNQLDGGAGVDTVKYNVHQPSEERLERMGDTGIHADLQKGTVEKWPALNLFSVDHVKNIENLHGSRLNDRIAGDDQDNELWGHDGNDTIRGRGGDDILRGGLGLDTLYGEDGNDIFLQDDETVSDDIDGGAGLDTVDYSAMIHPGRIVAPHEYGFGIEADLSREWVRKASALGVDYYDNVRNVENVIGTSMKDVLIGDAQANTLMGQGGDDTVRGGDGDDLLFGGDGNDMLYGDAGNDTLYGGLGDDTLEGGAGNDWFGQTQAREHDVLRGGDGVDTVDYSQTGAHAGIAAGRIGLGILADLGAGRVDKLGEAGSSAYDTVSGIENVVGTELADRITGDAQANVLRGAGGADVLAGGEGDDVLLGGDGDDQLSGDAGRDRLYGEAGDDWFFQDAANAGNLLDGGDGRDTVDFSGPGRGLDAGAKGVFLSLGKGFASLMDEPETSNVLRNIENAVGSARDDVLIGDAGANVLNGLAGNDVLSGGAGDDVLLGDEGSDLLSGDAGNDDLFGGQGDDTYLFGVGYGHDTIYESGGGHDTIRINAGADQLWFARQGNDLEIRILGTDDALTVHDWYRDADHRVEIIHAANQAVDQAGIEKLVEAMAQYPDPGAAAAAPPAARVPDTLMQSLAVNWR

Chain of Edema Factor (EF) (P40136 34-800 limits assumed): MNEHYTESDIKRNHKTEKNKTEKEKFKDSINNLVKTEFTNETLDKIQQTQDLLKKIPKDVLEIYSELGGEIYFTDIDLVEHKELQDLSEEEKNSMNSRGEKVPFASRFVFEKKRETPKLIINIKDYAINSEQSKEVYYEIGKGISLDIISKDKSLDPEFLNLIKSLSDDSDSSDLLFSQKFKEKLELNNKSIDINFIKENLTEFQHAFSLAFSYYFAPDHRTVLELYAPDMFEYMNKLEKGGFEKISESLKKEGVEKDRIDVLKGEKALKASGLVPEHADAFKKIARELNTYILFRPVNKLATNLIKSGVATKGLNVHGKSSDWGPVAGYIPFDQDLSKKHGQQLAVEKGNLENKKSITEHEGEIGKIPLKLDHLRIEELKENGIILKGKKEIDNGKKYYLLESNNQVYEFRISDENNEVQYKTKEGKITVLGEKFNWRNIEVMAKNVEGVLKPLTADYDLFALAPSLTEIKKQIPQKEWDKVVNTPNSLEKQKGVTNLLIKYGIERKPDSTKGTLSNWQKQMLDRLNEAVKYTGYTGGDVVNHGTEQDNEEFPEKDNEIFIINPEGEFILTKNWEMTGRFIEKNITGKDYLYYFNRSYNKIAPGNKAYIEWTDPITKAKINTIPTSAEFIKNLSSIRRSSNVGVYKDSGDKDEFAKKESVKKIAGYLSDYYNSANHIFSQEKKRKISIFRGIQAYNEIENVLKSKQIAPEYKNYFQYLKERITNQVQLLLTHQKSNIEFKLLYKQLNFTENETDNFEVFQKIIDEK
Chain of preformed EF-CaM complex (P40136 whole entry, looked up, one chain of several): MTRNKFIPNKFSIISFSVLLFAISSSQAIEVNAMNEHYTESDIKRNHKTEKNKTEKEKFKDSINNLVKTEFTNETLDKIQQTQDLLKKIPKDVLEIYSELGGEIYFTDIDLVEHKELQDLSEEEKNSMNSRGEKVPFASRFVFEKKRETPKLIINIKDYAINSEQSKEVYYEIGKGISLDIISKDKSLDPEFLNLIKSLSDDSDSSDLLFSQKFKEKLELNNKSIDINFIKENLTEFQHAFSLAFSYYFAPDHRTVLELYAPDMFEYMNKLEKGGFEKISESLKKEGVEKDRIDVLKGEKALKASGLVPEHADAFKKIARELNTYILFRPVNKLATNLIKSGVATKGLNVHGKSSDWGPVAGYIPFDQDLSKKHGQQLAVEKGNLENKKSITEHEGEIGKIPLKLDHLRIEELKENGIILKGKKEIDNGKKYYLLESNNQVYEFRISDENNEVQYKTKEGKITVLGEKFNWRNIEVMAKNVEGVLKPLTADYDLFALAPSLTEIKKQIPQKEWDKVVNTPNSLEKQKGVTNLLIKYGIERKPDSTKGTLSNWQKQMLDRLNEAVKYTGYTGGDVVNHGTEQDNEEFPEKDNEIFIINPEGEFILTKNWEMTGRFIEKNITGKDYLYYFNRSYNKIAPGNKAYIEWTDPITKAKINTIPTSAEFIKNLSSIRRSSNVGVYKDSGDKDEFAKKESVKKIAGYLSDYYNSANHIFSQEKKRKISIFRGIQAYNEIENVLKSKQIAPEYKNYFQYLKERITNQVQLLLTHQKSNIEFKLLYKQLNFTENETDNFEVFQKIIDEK

Structure (SMILES)	IC50 (Edema Factor (EF)) [µM]	concentration at which EF activity is inhibited (Edema Factor (EF))	inhibition at 100 µM (Edema Factor (EF)) [%]	inhibition at 10 µM (Edema Factor (EF); read-out: inhibition of EF enzymatic activity) [%]	inhibition of enzymatic activity of the preformed EF-CaM complex (preformed EF-CaM complex)	effect on the ability of CaM to associate with CaM-binding peptide from CyaA (calmodulin (CaM))	fluorescence anisotropy (r) of P233-254 peptide (calmodulin (CaM); with equimolar CaM)	fluorescence anisotropy (r) of P233-254 peptide (calmodulin (CaM); without CaM)	inhibition of CyaA activity [1]
O=C(Nc1ccc(Cl)c(Cl)c1)Nc1cc(-c2ccccc2)sc1C(=O)O [TUAdiCl]	2 to 3	less than 10 μM	98 ± 6	> 80	significantly inhibit	no effect	0.095	0.027	–
O=C(Nc1ccc(Cl)c(Cl)c1)Nc1cc(-c2ccccc2)sc1C(=O)O [drawing 10]	–	–	–	–	–	–	–	–	inhibit CyaA activity
